Columns and labels:
MCF7 [1] = experiment: Antitumor activity against human MCF7 cells xenografted in NOD.Cg-Prkdcscid Il2rgtmw/SzJ jax 005557 mouse assessed as tumor weight at 10 mg/kg, iv administered as 5 doses every 4 days starting at day 9 post-tumor grafting measured on day 45 relative to vehicle treated control; format: functional
Mus musculus [2] = experiment: Toxicity in NOD.Cg-Prkdcscid Il2rgtmw/SzJ jax 005557 mouse xenografted with human MCF7 cells assessed as weight loss at 10 mg/kg, iv administered as 5 doses every 4 days starting at day 9 post-tumor grafting relative to vehicle treated control; format: organism-based; design: dose 10 mg/kg, route intravenous; settings: in vivo, 96 h
Mus musculus [3] = experiment: Toxicity in NOD.Cg-Prkdcscid Il2rgtmw/SzJ jax 005557 mouse xenografted with human MCF7 cells assessed as induction of toxic effect at 10 mg/kg, iv administered as 5 doses every 4 days starting at day 9 post-tumor grafting relative to vehicle treated control; format: organism-based; design: dose 10 mg/kg, route intravenous; settings: in vivo, 96 h
HCT-15 [4] = experiment: Antitumor activity against human HCT15 cells xenografted in NOD.Cg-Prkdcscid Il2rgtmw/SzJ jax 005557 mouse assessed as tumor weight at 10 mg/kg, iv administered as 5 doses every 3 days starting at day 7 post-tumor grafting measured on day 25 relative to vehicle treated control; format: functional
MCF7 [5] = experiment: Cytotoxicity against human MCF7 cells incubated for 24 hrs measured 48 hrs post cell re-growth post compound dose by MTT assay; format: functional, cell-based
Mus musculus [6] = experiment: Toxicity in NOD.Cg-Prkdcscid Il2rgtmw/SzJ jax 005557 mouse xenografted with human HCT15 cells assessed as induction of toxic effect at 10 mg/kg, iv administered as 5 doses every 3 days starting at day 7 post-tumor grafting relative to vehicle treated control; format: organism-based, HCT-15; design: dose 10 mg/kg, route intravenous; settings: in vivo, 72 h
[7] = Toxicity in iv dosed NOD.Cg-Prkdcscid Il2rgtmw/SzJ jax 005557 mouse assessed as maximum tolerated dose at 10 mg/kg, iv administered as 5 doses every 3 days starting at day 7 post-tumor grafting; format: organism-based; design: dose 10 mg/kg, route intravenous; settings: in vivo
A549 = experiment: Cytotoxicity against human A549 cells incubated for 24 hrs measured 48 hrs post cell re-growth post compound dose by MTT assay; format: functional, cell-based
Mus musculus [8] = experiment: Toxicity in NOD.Cg-Prkdcscid Il2rgtmw/SzJ jax 005557 mouse xenografted with human MCF7 cells assessed as mortality incidence at 10 mg/kg, iv administered as 5 doses every 4 days starting at day 9 post-tumor grafting relative to vehicle treated control; format: organism-based; design: dose 10 mg/kg, route intravenous; settings: in vivo, 96 h
Mus musculus [9] = experiment: Toxicity in NOD.Cg-Prkdcscid Il2rgtmw/SzJ jax 005557 mouse xenografted with human HCT15 cells assessed as mortality incidence at 10 mg/kg, iv administered as 5 doses every 3 days starting at day 7 post-tumor grafting relative to vehicle treated control; format: organism-based, HCT-15; design: dose 10 mg/kg, route intravenous; settings: in vivo, 72 h
HCT-15 [10] = experiment: Cytotoxicity against human HCT15 cells incubated for 24 hrs measured 48 hrs post cell re-growth post compound dose by MTT assay; format: functional, cell-based
Mus musculus [11] = experiment: Toxicity in NOD.Cg-Prkdcscid Il2rgtmw/SzJ jax 005557 mouse xenografted with human MCF7 cells assessed as induction of toxic effect at 10 mg/kg, iv administered as weekly four doses starting at day 13 post-tumor grafting relative to vehicle treated control; format: organism-based; design: dose 10 mg/kg, route intravenous; settings: in vivo
Mus musculus [12] = experiment: Toxicity in NOD.Cg-Prkdcscid Il2rgtmw/SzJ jax 005557 mouse xenografted with human HCT15 cells assessed as weight loss at 10 mg/kg, iv administered as 5 doses every 3 days starting at day 7 post-tumor grafting relative to vehicle treated control; format: organism-based, HCT-15; design: dose 10 mg/kg, route intravenous; settings: in vivo, 72 h
MCF7 [13] = experiment: Antitumor activity against human MCF7 cells xenografted in NOD.Cg-Prkdcscid Il2rgtmw/SzJ jax 005557 mouse assessed as tumor weight at 10 mg/kg, iv administered as weekly four doses starting at day 13 post-tumor grafting measured on day 45 relative to vehicle treated control; format: functional
Mus musculus [14] = experiment: Toxicity in NOD.Cg-Prkdcscid Il2rgtmw/SzJ jax 005557 mouse xenografted with human MCF7 cells assessed as mortality incidence at 10 mg/kg, iv administered as weekly four doses starting at day 13 post-tumor grafting relative to vehicle treated control; format: organism-based; design: dose 10 mg/kg, route intravenous; settings: in vivo
[15] = Toxicity in iv dosed NOD.Cg-Prkdcscid Il2rgtmw/SzJ jax 005557 mouse assessed as maximum tolerated dose at 10 mg/kg, iv administered as weekly four doses starting at day 13 post-tumor grafting; format: organism-based; design: dose 10 mg/kg, route intravenous; settings: in vivo
[16] = Toxicity in iv dosed NOD.Cg-Prkdcscid Il2rgtmw/SzJ jax 005557 mouse assessed as maximum tolerated dose at 10 mg/kg, iv administered as 5 doses every 4 days starting at day 9 post-tumor grafting; format: organism-based; design: dose 10 mg/kg, route intravenous; settings: in vivo
Mus musculus [17] = experiment: Toxicity in NOD.Cg-Prkdcscid Il2rgtmw/SzJ jax 005557 mouse xenografted with human MCF7 cells assessed as weight loss at 10 mg/kg, iv administered as weekly four doses starting at day 13 post-tumor grafting relative to vehicle treated control; format: organism-based; design: dose 10 mg/kg, route intravenous; settings: in vivo

Row | SMILES | IC50 (MCF7 [5]) [µM] | IC50 (A549) [µM] | IC50 (HCT-15 [10]) [µM] | further results
1 | CCN1C[C@]2(COC)[C@H](O)C[C@H](OC)[C@]34C1[C@H]([C@H](OC)[C@H]23)[C@]1(OC(=O)CCCCCCC(=O)O[C@]23[C@H]5[C@@H](OC(=O)c6ccccc6)[C@](O)(C[C@H]5[C@@]56C7[C@@H]2[C@H](OC)[C@@H]5[C@](COC)(CN7CC)[C@H](O)C[C@@H]6OC)[C@@H](OC)[C@@H]3O)[C@H]2[C@@H](OC(=O)c3ccccc3)[C@](O)(C[C@H]24)[C@@H](OC)[C@@H]1O | 6.9 | 7.53 | 4.01 | T/C (MCF7 [1]): 36%; T/C (Mus musculus [2]): 0%; Activity (Mus musculus [3]): Non-toxic; T/C (HCT-15 [4]): 49%; Activity (Mus musculus [6]): Non-toxic; MTD at 72 h [7]: 15 mg/kg; Activity (Mus musculus [8]): Non-toxic; Activity (Mus musculus [9]): Non-toxic; Activity (Mus musculus [11]): Non-toxic; T/C (Mus musculus [12]): 9.34%; T/C (MCF7 [13]): 56%; Activity (Mus musculus [14]): Non-toxic; MTD [15]: 15 mg/kg; MTD at 96 h [16]: 15 mg/kg; T/C (Mus musculus [17]): 0%
2 | CCN1C[C@]2(COC)[C@H](O)C[C@H](OC)[C@]34C1[C@H]([C@H](OC)[C@H]23)[C@]1(OC(=O)CCCCCCCC(=O)O)[C@H]2[C@@H](OC(=O)c3ccccc3)[C@](O)(C[C@H]24)[C@@H](OC)[C@@H]1O | > 60 | > 60 | > 60 | –
3 | CCN1C[C@]2(COC)[C@H](O)C[C@H](OC)[C@]34C1[C@H]([C@H](OC)[C@H]23)[C@]1(OC(=O)CCCCCCC(=O)O)[C@H]2[C@@H](OC(=O)c3ccccc3)[C@](O)(C[C@H]24)[C@@H](OC)[C@@H]1O | > 60 | > 60 | > 60 | –
4 | CCN1C[C@]2(COC)[C@H](O)C[C@H](OC)[C@]34C1[C@H]([C@H](OC)[C@H]23)[C@]1(OC(=O)CCCCCC(=O)O[C@]23[C@H]5[C@@H](OC(=O)c6ccccc6)[C@](O)(C[C@H]5[C@@]56C7[C@@H]2[C@H](OC)[C@@H]5[C@](COC)(CN7CC)[C@H](O)C[C@@H]6OC)[C@@H](OC)[C@@H]3O)[C@H]2[C@@H](OC(=O)c3ccccc3)[C@](O)(C[C@H]24)[C@@H](OC)[C@@H]1O | 7.56 | 9.5 | 4.64 | –
5 | CCN1C[C@]2(COC)[C@H](O)C[C@H](OC)[C@]34C1[C@H]([C@H](OC)[C@H]23)[C@]1(OC(=O)CCCC(=O)O)[C@H]2[C@@H](OC(=O)c3ccccc3)[C@](O)(C[C@H]24)[C@@H](OC)[C@@H]1O | > 60 | > 60 | > 60 | –
6 | CCN1C[C@]2(COC)[C@H](O)C[C@H](OC)[C@]34C1[C@H]([C@H](OC)[C@H]23)[C@]1(OC(=O)CCCCCCCCC(=O)O)[C@H]2[C@@H](OC(=O)c3ccccc3)[C@](O)(C[C@H]24)[C@@H](OC)[C@@H]1O | > 60 | > 60 | > 60 | –
7 | CCN1C[C@]2(COC)[C@H](O)C[C@H](OC)[C@]34C1[C@H]([C@H](OC)[C@H]23)[C@]1(OC(=O)CCCCCC(=O)O)[C@H]2[C@@H](OC(=O)c3ccccc3)[C@](O)(C[C@H]24)[C@@H](OC)[C@@H]1O | > 60 | > 60 | > 60 | –
8 | CCN1C[C@]2(COC)[C@H](O)C[C@H](OC)[C@]34C1[C@H]([C@H](OC)[C@H]23)[C@]1(OC(=O)CCC(=O)O[C@]23[C@H]5[C@@H](OC(=O)c6ccccc6)[C@](O)(C[C@H]5[C@@]56C7[C@@H]2[C@H](OC)[C@@H]5[C@](COC)(CN7CC)[C@H](O)C[C@@H]6OC)[C@@H](OC)[C@@H]3O)[C@H]2[C@@H](OC(=O)c3ccccc3)[C@](O)(C[C@H]24)[C@@H](OC)[C@@H]1O | > 60 | > 60 | > 60 | –
9 | CCN1C[C@]2(COC)[C@H](O)C[C@H](OC)[C@]34C1[C@H]([C@H](OC)[C@H]23)[C@]1(OC(=O)CCCCC(=O)O)[C@H]2[C@@H](OC(=O)c3ccccc3)[C@](O)(C[C@H]24)[C@@H](OC)[C@@H]1O | > 60 | > 60 | > 60 | –
10 | CCN1C[C@]2(COC)[C@H](O)C[C@H](OC)[C@]34C1[C@H]([C@H](OC)[C@H]23)[C@]1(OC(=O)CCCC(=O)O[C@]23[C@H]5[C@@H](OC(=O)c6ccccc6)[C@](O)(C[C@H]5[C@@]56C7[C@@H]2[C@H](OC)[C@@H]5[C@](COC)(CN7CC)[C@H](O)C[C@@H]6OC)[C@@H](OC)[C@@H]3O)[C@H]2[C@@H](OC(=O)c3ccccc3)[C@](O)(C[C@H]24)[C@@H](OC)[C@@H]1O | > 60 | > 60 | > 60 | –
11 | CCN1C[C@]2(COC)[C@H](O)C[C@H](OC)[C@]34C1[C@H]([C@H](OC)[C@H]23)[C@]1(OC(=O)CCCCC(=O)O[C@]23[C@H]5[C@@H](OC(=O)c6ccccc6)[C@](O)(C[C@H]5[C@@]56C7[C@@H]2[C@H](OC)[C@@H]5[C@](COC)(CN7CC)[C@H](O)C[C@@H]6OC)[C@@H](OC)[C@@H]3O)[C@H]2[C@@H](OC(=O)c3ccccc3)[C@](O)(C[C@H]24)[C@@H](OC)[C@@H]1O | > 60 | > 60 | > 60 | –
12 | CCN1C[C@]2(COC)[C@H](O)C[C@H](OC)[C@]34C1[C@H]([C@H](OC)[C@H]23)[C@]1(OC(=O)CCCCCCCCCC(=O)O)[C@H]2[C@@H](OC(=O)c3ccccc3)[C@](O)(C[C@H]24)[C@@H](OC)[C@@H]1O | > 60 | > 60 | > 60 | –
13 | CCN1C[C@]2(COC)[C@H](O)C[C@H](OC)[C@]34C1[C@H]([C@H](OC)[C@H]23)[C@]1(OC(=O)CCCCCCCC(=O)O[C@]23[C@H]5[C@@H](OC(=O)c6ccccc6)[C@](O)(C[C@H]5[C@@]56C7[C@@H]2[C@H](OC)[C@@H]5[C@](COC)(CN7CC)[C@H](O)C[C@@H]6OC)[C@@H](OC)[C@@H]3O)[C@H]2[C@@H](OC(=O)c3ccccc3)[C@](O)(C[C@H]24)[C@@H](OC)[C@@H]1O | 16.9 | 19.5 | 28 | –
14 | CCN1C[C@]2(COC)[C@H](O)C[C@H](OC)[C@]34C1[C@H]([C@H](OC)[C@H]23)[C@]1(OC(=O)CCC(=O)O)[C@H]2[C@@H](OC(=O)c3ccccc3)[C@](O)(C[C@H]24)[C@@H](OC)[C@@H]1O | > 60 | > 60 | > 60 | –
